Read-outs that look alike come from different tables or passages of the source.
Tests used:
[1] = system: DNA-PK phosphorylation at serine 2056 in HCT116 cells; test: Cellular DNA-PK phosphorylation at serine 2056 (Example 5); format: cell-based; conditions: 10 μM bleomycin, six hours
Experimental: HCT116 cells were cultivated in MEM alpha medium with 10% of foetal calf serum, 1 mM sodium pyruvate and 2 mM glutamine at 37° C. and 10% CO2. The cells were detached from the base of the culture vessels with the aid of trypsine/EDTA, centrifuged off in centrifuge tubes and taken up in fresh medium. The cell density was subsequently determined. 200,000 cells were sown per cavity of a 12-well cell culture plate in 1 ml of culture medium and cultivated overnight. Next day, 10 μM bleomycin and test substances in fresh culture medium was added to the cells and these were cultivated for a further six hours. Cell lysis was subsequently carried out. The cell lysates were investigated by SDS polyacrylamide gel electrophoresis by means of DNA-PK-specific antibodies (Abcam ab13852: total DNA-PK; ab18192: phosphoserine 2056 DNA-PK) and Western Blotting. The enzymatic reaction was developed with the aid of a chemiluminescence reagent. The chemiluminescence was recorded with the aid of a documentation system (VersaDoc™, Bio-Rad, USA) and evaluated densitometrically with the aid of instrument-specific software (Quantity One). The signals with phospho-DNA-PK-specific antibodies were standardised to the signal with the antibody against the total protein DNA-PK. IC50 values and percentage inhibition data were determined by referencing to the signal level of the bleomycin-treated vehicle control group.

DNA-PK [2] = molecular target: T1, DNA-PK (Homo sapiens (Human), UniProt P78527); test: DNA-PK biochemical assay (FlashPlate kinase assay, Example 4); conditions: 5 μM ATP
Experimental: The kinase assay was carried out in streptavidin-coated […] microtitre FlashPlates®. To this end, 1.5 μg of the DNA-PK/protein complex and 100 ng of biotinylated substrate, such as, for example, PESQEAFADLWKK biotin-NH2 (“biotin-DNA-PK peptide”), in a total volume of 36.5 μl (34.25 mM HEPES/KOH, 7.85 mM Tris-HCl, 68.5 mM KCl, 5 μM ATP, 6.85 mM MgCl2, 0.5 mM EDTA, 0.14 mM EGTA, 0.69 mM DTT, pH 7.4), were incubated at room temperature for 90 min with 500 ng of DNA from calf thymus, 0.1 μCi of 33P-ATP and 1.8% of DMSO per well with or without the test compound. The reaction was stopped using 50 μl/well of 200 mM EDTA. After incubation for a further 30 min at room temperature, the liquid was removed. Each well was washed three times with 100 μl of 0.9% sodium chloride solution. A non-specific reaction (blank value) was determined using 10 μM of a proprietary kinase inhibitor. The radioactivity measurement was carried out by means of a TopCount. IC50 values were calculated in RS1 (Kashishian et al. (2003) Molecular Cancer Therapeutics 1257) and are compiled in Table 1.

[3] = system: kinases of the PI3K isoenzyme family; conditions: cited from earlier work
[4] = cited from earlier work
mammal cells = conditions: Rosenzweig et al. (1999); cited from earlier work
DNA-PK [5] = molecular target: T1, DNA-PK; conditions: Hardcastle et al. (2005); cited from earlier work
HCT116 cells = test: Cellular colony growth test with X-ray irradiation (Example 6); format: cell-based; conditions: Homo sapiens, HCT-116; HCT116, at 4.8 Gray
Experimental: The colorectal carcinoma cell line HCT116 was cultivated in MEM alpha medium with 10% of foetal calf serum, 1 mM sodium pyruvate and 2 mM glutamine at 37° C. and 10% CO2. The cells were detached from the base of the culture vessels with the aid of trypsine/EDTA, centrifuged off in centrifuge tubes and taken up in fresh medium. The cell density was subsequently determined. 300 cells were sown out in 6-well cell culture plates in 2 ml of culture medium and cultivated overnight. Next day, the cells were treated with test substances for one hour before the cell culture plates were treated with defined doses of X-rays (in general 0, 2.4, 4.8, 12 Gray; irradiation instrument: Faxitron RX-650; Faxitron X-Ray LLC, USA). In order to determine the dose/effect relationships, the cells were treated with various concentrations of a test substance. After irradiation, the cells are cultivated for a further 24 hours in the presence of the test substance, the culture medium was then replaced with culture medium without test substance, and the cells were cultivated for a further 6-8 days. The cell colonies formed were subsequently stained with the aid of Crystal Violet and counted in a colony counter (Gelcount, Oxford Optronics, UK). Dose/effect curves, in particular IC50 values, were determined using a curve adaptation function for nonlinear dose/effect relationships.

SMILES	IC50 (DNA-PK [2]; read-out: Bonding DNA-PK IC50) [nM]	other results
O[C@H](c1nccs1)[C@H]1CCCN(c2nnnc3cc(N4CCOCC4)ccc23)C1 [(S)-[(S)-1-(7-morpholin-4-ylbenzo[d]-1,2,3-triazin-4-yl)piperidin-3-yl]thiazol-2-ylmethanol]		cellular activity (assay from Example 5) [1]: sub-micromolar; IC50 (DNA-PK [2]; read-out: biochemical activity (assay from Example 4)): 1 nM
CCN1CCN(CC(=O)Nc2ccc(-c3cccc4c(=O)cc(N5CCOCC5)oc34)c3sc4ccccc4c23)CC1 [KU-0060648]		inhibition of kinases of the PI3K isoenzyme family [3]: potently inhibited; solubility profile in aqueous medium [4]: improved solubility profile
O=c1cc(N2CCOCC2)oc2c(-c3ccccc3)cccc12 [LY294002]		increase in sensitivity to ionising irradiation in cellular terms (mammal cells): weak increase
O=c1cc(N2CCOCC2)oc2c(-c3cccc4c3sc3ccccc34)cccc12 [NU-7441]		IC50 (DNA-PK [5]): 20 nM
Cc1cnc([C@@H](O)[C@H]2CCCN(c3nnnc4cc(N5CCOCC5)ccc34)C2)s1 [No. 12, (S)-(5-Methyl-thiazol-2-yl)-[(S)-1-(7-morpholin-4-ylbenzo[d]-1,2,3-triazin-4-yl)-piperidin-3-yl]-methanol]	< 100	IC50 (HCT116 cells): < 400 nM
O[C@@H](c1nccs1)[C@H]1CCCN(c2nnnc3cc(N4CCOCC4)ccc23)C1 [compound 1, (R)-[(S)-1-(7-Morpholin-4-yl-benzo[d]-1,2,3-triazin-4-yl)-piperidin-3-yl]-thiazol-2-yl-methanol]	< 100	
O[C@H](c1nccs1)[C@@H]1CCCN(c2nnnc3cc(N4CCOCC4)ccc23)C1 [compound 2, (S)-[(R)-1-(7-Morpholin-4-yl-benzo[d]-1,2,3-triazin-4-yl)-piperidin-3-yl]-thiazol-2-yl-methanol]	< 100	
O[C@@H](c1nccs1)[C@@H]1CCCN(c2nnnc3cc(N4CCOCC4)ccc23)C1 [compound 3, (R)-[(R)-1-(7-Morpholin-4-yl-benzo[d]-1,2,3-triazin-4-yl)-piperidin-3-yl]-thiazol-2-yl-methanol]	< 100	
Cc1csc([C@@H](O)[C@H]2CCCN(c3nnnc4cc(N5CCOCC5)ccc34)C2)n1 [compound 4, (S)-(4-Methyl-thiazol-2-yl)-[(S)-1-(7-morpholin-4-ylbenzo[d]-1,2,3-triazin-4-yl)-piperidin-3-yl]-methanol]	< 100	
Cc1csc([C@H](O)[C@H]2CCCN(c3nnnc4cc(N5CCOCC5)ccc34)C2)n1 [compound 5, (R)-(4-Methyl-thiazol-2-yl)-[(S)-1-(7-morpholin-4-ylbenzo[d]-1,2,3-triazin-4-yl)-piperidin-3-yl]-methanol]	< 100	
Cc1csc([C@@H](O)[C@@H]2CCCN(c3nnnc4cc(N5CCOCC5)ccc34)C2)n1 [compound 6, (S)-(4-Methyl-thiazol-2-yl)-[(R)-1-(7-morpholin-4-ylbenzo[d]-1,2,3-triazin-4-yl)-piperidin-3-yl]-methanol]	< 100	
Cc1csc([C@H](O)[C@@H]2CCCN(c3nnnc4cc(N5CCOCC5)ccc34)C2)n1 [compound 7, (R)-(4-Methyl-thiazol-2-yl)-[(R)-1-(7-morpholin-4-ylbenzo[d]-1,2,3-triazin-4-yl)-piperidin-3-yl]-methanol]	< 100	
C[C@](O)(c1nccs1)[C@H]1CCCN(c2nnnc3cc(N4CCOCC4)ccc23)C1 [compound 8, (R)-1-[(S)-1-(7-Morpholin-4-yl-benzo[d]-1,2,3-triazin-4-yl)-piperidin-3-yl]-1-thiazol-2-yl-ethanol]	< 100	
C[C@@](O)(c1nccs1)[C@H]1CCCN(c2nnnc3cc(N4CCOCC4)ccc23)C1 [compound 9, (S)-1-[(S)-1-(7-Morpholin-4-yl-benzo[d]-1,2,3-triazin-4-yl)-piperidin-3-yl]-1-thiazol-2-yl-ethanol]	< 100	
Cc1nc([C@H](O)[C@@H]2CCCN(c3nnnc4cc(N5CCOCC5)ccc34)C2)sc1C [compound 10, (R)-(4,5-Dimethyl-thiazol-2-yl)-[(R)-1-(7-morpholin-4-ylbenzo[d]-1,2,3-triazin-4-yl)-piperidin-3-yl]-methanol]	< 100	
Cc1nc([C@@H](O)[C@H]2CCCN(c3nnnc4cc(N5CCOCC5)ccc34)C2)sc1C [compound 11, (S)-(4,5-Dimethyl-thiazol-2-yl)-[(S)-1-(7-morpholin-4-ylbenzo[d]-1,2,3-triazin-4-yl)-piperidin-3-yl]-methanol]	< 100	
Cc1cnc([C@H](O)[C@H]2CCCN(c3nnnc4cc(N5CCOCC5)ccc34)C2)s1 [compound 13, (R)-(5-Methyl-thiazol-2-yl)-[(S)-1-(7-morpholin-4-ylbenzo[d]-1,2,3-triazin-4-yl)-piperidin-3-yl]-methanol]	< 100	
COc1ccc([C@@H](O)[C@H]2CCCN(c3nnnc4cc(N5CCOCC5)ccc34)C2)nn1 [compound 14, (S)-(6-Methoxy-pyridazin-3-yl)-[(S)-1-(7-morpholin-4-yl-benzo[d]-1,2,3-triazin-4-yl)-piperidin-3-yl]-methanol]	< 100	
COc1ccc([C@H](O)[C@H]2CCCN(c3nnnc4cc(N5CCOCC5)ccc34)C2)nn1 [compound 15, (R)-(6-Methoxy-pyridazin-3-yl)-[(S)-1-(7-morpholin-4-yl-benzo[d]-1,2,3-triazin-4-yl)-piperidin-3-yl]-methanol]	< 100	
COc1ccc([C@@H](O)[C@H]2CCCN(c3nnnc4cc(N5CCOCC5)ccc34)C2)cn1 [compound 16, (S)-(6-Methoxy-pyridin-3-yl)-[(S)-1-(7-morpholin-4-ylbenzo[d]-1,2,3-triazin-4-yl)-piperidin-3-yl]-methanol]	< 100	
COc1ccc([C@H](O)[C@H]2CCCN(c3nnnc4cc(N5CCOCC5)ccc34)C2)cn1 [compound 17, (R)-(6-Methoxy-pyridin-3-yl)-[(S)-1-(7-morpholin-4-ylbenzo[d]-1,2,3-triazin-4-yl)-piperidin-3-yl]-methanol]	< 100	
CC(C)n1cc([C@@H](O)[C@H]2CCCN(c3nnnc4cc(N5CCOCC5)ccc34)C2)cn1 [compound 18, (S)-(1-Isopropyl-1H-pyrazol-4-yl)-[(S)-1-(7-morpholin-4-yl-benzo[d]-1,2,3-triazin-4-yl)-piperidin-3-yl]-methanol]	< 100	
CC(C)(C)n1cc([C@@H](O)[C@H]2CCCN(c3nnnc4cc(N5CCOCC5)ccc34)C2)cn1 [compound 19, (S)-(1-tert-Butyl-1H-pyrazol-4-yl)-[(S)-1-(7-morpholin-4-yl-benzo[d]-1,2,3-triazin-4-yl)-piperidin-3-yl]-methanol]	< 100	
CCn1cc([C@@H](O)[C@H]2CCCN(c3nnnc4cc(N5CCOCC5)ccc34)C2)cn1 [compound 20, (S)-(1-Ethyl-1H-pyrazol-4-yl)-[(S)-1-(7-morpholin-4-ylbenzo[d]-1,2,3-triazin-4-yl)-piperidin-3-yl]-methanol]	< 100	
